One assay relates to MOLM-13 cells. Description: Cell viability assay (CellTiter-Glo) in MOLM-13 cells. In kind it is cell-based.
In another assay the test system is MV4;11 cells. Description: Cell viability assay (CellTiter-Glo) in MV4;11 cells. In kind it is cell-based. To be noted: read-out: MV4. The method in brief: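 After three days' exposure to 3-fold serial compound dilutions (8 or 12 points), viability of cells seeded at 5000/well is read by CellTiter-Glo. Runs were done alone or combined with gilteritinib at 10 nM (MV4;11) or 20 nM (MOLM-13); IC50 from nonlinear regression.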

Where [1] appears, read: Homo sapiens, 72 h, MOLM-13 cells, compound alone, three days, read-out: MOLM-13 IC50.
[2] abbreviates: MOLM-13 cells, with gilteritinib, three days, read-out: MOLM-13 IC50 (nM) + 10 nM Gil.
The mark [3] stands for this setting: Homo sapiens, MV4-11, 72 h, MV4;11 cells, compound alone, three days, 11 IC50.
Where [4] appears, read: MV4;11 cells, with 10 nM gilteritinib, three days, 11 IC50 (nM) + 10 nM Gil.

SMILES strings stand for the structures. Where two headings read alike, the source gives them in different places. Some results are limits rather than exact numbers.

Regarding `CN(C)c1nc(-c2cn([C@H]3C[C@H](CNc4ccc5c(c4)C(=O)N(C4CCC(=O)NC4=O)C5=O)C3)nc2C2CC2)ccc1F` (stereo partly drawn) [GS-707, 5-(((Trans-3-(3-cyclopropyl-4-(6-(dimethylamino)-5-fluoropyridin-2-yl)-1H-pyrazol-1-yl)cyclobutyl)methyl)amino)-2-(2,6-dioxopiperidin-3-yl)isoindoline-1,3-dione], the IC50 in the assay with MOLM-13 cells (Homo sapiens, MOLM-13, 72 h, read-out: MOLM-13 IC50 (nM)) is 10 to 100 nM; with MOLM-13 cells (read-out: MOLM-13 IC50 (nM) + 10 nM Gil, MOLM-13 cells, with gilteritinib, three days), 10 to 100 nM; in the assay with MV4;11 cells (Homo sapiens, MV4-11, 72 h, 11 IC50 (nM)) it was 10 to 100 nM; with MV4;11 cells (11 IC50 (nM) + 10 nM Gil, MV4;11 cells, with 10 nM gilteritinib, three days), under 10 nM. In addition, the “sensitization of AML cells to GSPT1 degraders by FLT3 inhibition” value with MOLM-13 cells (MOLM-13 cells, with or without 20 nM gilteritinib, 3 days) was “FLT3 inhibition sensitizes AML cells”.
For the compound `O=C1CCC(N2C(=O)c3ccc(NC[C@H]4C[C@H](n5cc(NC6CCOCC6)c(C6CC6)n5)C4)cc3C2=O)C(=O)N1` (stereo partly drawn) [GS-708, 5-(((Trans-3-(3-cyclopropyl-4-((tetrahydro-2H-pyran-4-yl)amino)-1H-pyrazol-1-yl)cyclobutyl)methyl)amino)-2-(2,6-dioxopiperidin-3-yl)isoindoline-1,3-dione], the values for the IC50 in the assay on MOLM-13 cells (setting [1]), with MOLM-13 cells (setting [2]) and with MV4;11 cells (setting [3]) were over 1000 nM, 100 to 1000 nM and over 1000 nM, respectively.
Regarding `O=C1CCC(N2C(=O)c3ccc(NC[C@H]4C[C@H](n5cc(NC6CCC(O)CC6)c(C6CC6)n5)C4)cc3C2=O)C(=O)N1` (stereo partly drawn) [GS-709, 5-(((Trans-3-(3-cyclopropyl-4-((4-hydroxycyclohexyl)amino)-1H-pyrazol-1-yl)cyclobutyl)methyl)amino)-2-(2,6-dioxopiperidin-3-yl)isoindoline-1,3-dione], the IC50 in the assay on MOLM-13 cells (setting [1]) and with MV4;11 cells (setting [3]) was over 1000 nM in each case.
For `O=C1CCC(N2C(=O)c3ccc(NC[C@H]4C[C@H](n5cc(-c6cnc7c(NC(CO)CO)cccc7n6)c(C6CC6)n5)C4)cc3C2=O)C(=O)N1` (stereo partly drawn) [GS-710, 5-(((Trans-3-(3-cyclopropyl-4-(5-((1,3-dihydroxypropan-2-yl)amino)quinoxalin-2-yl)-1H-pyrazol-1-yl)cyclobutyl)methyl)amino)-2-(2,6-dioxopiperidin-3-yl)isoindoline-1,3-dione], the IC50 with MOLM-13 cells (setting [1]) was 10 to 100 nM; in the assay with MOLM-13 cells (setting [2]) it was under 10 nM; in the assay with MV4;11 cells (setting [3]) it was 10 to 100 nM; in the assay on MV4;11 cells (setting [4]), under 10 nM.
As to `Cc1nc(-c2cn(C[C@H]3C[C@H](Nc4ccc5c(c4)C(=O)N(C4CCC(=O)NC4=O)C5=O)C3)nc2C2CC2)ccc1F` (stereo partly drawn) [GS-711, 5-((Trans-3-((3-cyclopropyl-4-(5-fluoro-6-methylpyridin-2-yl)-1H-pyrazol-1-yl)methyl)cyclobutyl)amino)-2-(2,6-dioxopiperidin-3-yl)isoindoline-1,3-dione], the IC50 in the assay on MOLM-13 cells (setting [1]) and in the assay on MV4;11 cells (setting [3]) was over 1000 nM in each case.
As to `O=C1CCC(N2C(=O)c3ccc(NC[C@H]4C[C@H](n5cc(-c6cnc7cc(N8CC(O)C8)ccc7n6)c(C6CC6)n5)C4)cc3C2=O)C(=O)N1` (stereo partly drawn) [GS-712, 5-(((Trans-3-(3-cyclopropyl-4-(6-(3-hydroxyazetidin-1-yl)quinoxalin-2-yl)-1H-pyrazol-1-yl)cyclobutyl)methyl)amino)-2-(2,6-dioxopiperidin-3-yl)isoindoline-1,3-dione], the IC50 with MOLM-13 cells (setting [1]), with MOLM-13 cells (setting [2]), in the assay with MV4;11 cells (setting [3]) and in the assay on MV4;11 cells (setting [4]) was under 10 nM in each case.
Take `Cc1cccc(-c2nn([C@H]3C[C@H](CNc4ccc5c(c4)C(=O)N(C4CCC(=O)NC4=O)C5=O)C3)cc2C2CC2)n1` (stereo partly drawn) [GS-713, 5-(((Trans-3-(4-cyclopropyl-3-(6-methylpyridin-2-yl)-1H-pyrazol-1-yl)cyclobutyl)methyl)amino)-2-(2,6-dioxopiperidin-3-yl)isoindoline-1,3-dione]: the IC50 in the assay with MOLM-13 cells (setting [1]) lay within 100 to 1000 nM; in the assay on MOLM-13 cells (setting [2]), 10 to 100 nM; in the assay on MV4;11 cells (setting [3]), 10 to 100 nM; in the assay on MV4;11 cells (setting [4]) it was 10 to 100 nM.
Turning to `O=C1CCC(N2C(=O)c3ccc(NC[C@H]4C[C@H](n5cc(-c6ccc7cn[nH]c7n6)c(C6CC6)n5)C4)cc3C2=O)C(=O)N1` (stereo partly drawn) [GS-714, 5-(((Trans-3-(3-cyclopropyl-4-(1H-pyrazolo[3,4-b]pyridin-6-yl)-1H-pyrazol-1-yl)cyclobutyl)methyl)amino)-2-(2,6-dioxopiperidin-3-yl)isoindoline-1,3-dione], the IC50 fell in the range of 100 to 1000 nM in the assay with MOLM-13 cells (setting [1]), 10 to 100 nM in the assay with MOLM-13 cells (setting [2]), 10 to 100 nM in the assay on MV4;11 cells (setting [3]) and 10 to 100 nM in the assay on MV4;11 cells (setting [4]).
Consider `Cc1nc(-c2cn([C@H]3C[C@H](COc4ccc5c(c4)C(=O)N(C4CCC(=O)NC4=O)C5=O)C3)nc2C2CC2)ccc1F` (stereo partly drawn) [GS-715, 5-((Trans-3-(3-cyclopropyl-4-(5-fluoro-6-methylpyridin-2-yl)-1H-pyrazol-1-yl)cyclobutyl)methoxy)-2-(2,6-dioxopiperidin-3-yl)isoindoline-1,3-dione], for which the figures for the IC50 in the assay on MOLM-13 cells (setting [1]), with MV4;11 cells (setting [3]) and with MV4;11 cells (setting [4]) were over 1000 nM, over 1000 nM and 100 to 1000 nM, respectively.
Consider `Cc1nc(-c2cn([C@H]3C[C@H](CNc4cc5c(cc4F)C(=O)N(C4CCC(=O)NC4=O)C5=O)C3)nc2C2CC2)ccc1F` (stereo partly drawn) [GS-716], for which the IC50 with MOLM-13 cells (setting [1]) and with MV4;11 cells (setting [3]) was over 1000 nM throughout.
Regarding `Cc1cc(F)cnc1-c1cn([C@H]2C[C@H](CNc3ccc4c(c3)C(=O)N(C3CCC(=O)NC3=O)C4=O)C2)nc1C1CC1` (stereo partly drawn) [GS-717, 5-(((Trans-3-(3-cyclopropyl-4-(5-fluoro-3-methylpyridin-2-yl)-1H-pyrazol-1-yl)cyclobutyl)methyl)amino)-2-(2,6-dioxopiperidin-3-yl)isoindoline-1,3-dione], the IC50 was 10 to 100 nM in the assay with MOLM-13 cells (setting [1]), under 10 nM in the assay on MOLM-13 cells (setting [2]), under 10 nM in the assay on MV4;11 cells (setting [3]) and under 10 nM in the assay on MV4;11 cells (setting [4]).
Consider `O=C1CCC(N2C(=O)c3cc(F)c(NCCC[C@H]4C[C@H](n5cc(-c6cnc7ccccc7n6)c(C6CC6)n5)C4)cc3C2=O)C(=O)N1` (stereo partly drawn) [GS-718, 5-((3-(Trans-3-(3-cyclopropyl-4-(quinoxalin-2-yl)-1H-pyrazol-1-yl)cyclobutyl)propyl)amino)-2-(2,6-dioxopiperidin-3-yl)-6-fluoroisoindoline-1,3-dione], for which the IC50 with MOLM-13 cells (setting [1]) and in the assay on MV4;11 cells (setting [3]) was over 1000 nM in each case.
Take `Cc1cc(F)cnc1-c1cn([C@H]2C[C@H](CNc3ccc4c(c3)C(=O)N(C3CCC(=O)NC3=O)C4=O)C2)nc1C(F)F` (stereo partly drawn) [GS-719, 5-(((Trans-3-(3-(Difluoromethyl)-4-(5-fluoro-3-methylpyridin-2-yl)-1H-pyrazol-1-yl)cyclobutyl)methyl)amino)-2-(2,6-dioxopiperidin-3-yl)isoindoline-1,3-dione]: the IC50 is 10 to 100 nM in the assay with MOLM-13 cells (setting [1]), under 10 nM in the assay on MOLM-13 cells (setting [2]), 10 to 100 nM in the assay with MV4;11 cells (setting [3]) and under 10 nM in the assay with MV4;11 cells (setting [4]).
With `O=C1CCC(N2C(=O)c3ccc(NC[C@H]4C[C@H](n5cc(-c6ccc7[nH]ccc7n6)c(C6CC6)n5)C4)cc3C2=O)C(=O)N1` (stereo partly drawn) [GS-720, 5-(((Trans-3-(3-cyclopropyl-4-(1H-pyrrolo[3,2-b]pyridin-5-yl)-1H-pyrazol-1-yl)cyclobutyl)methyl)amino)-2-(2,6-dioxopiperidin-3-yl)isoindoline-1,3-dione], the IC50 is 100 to 1000 nM in the assay on MOLM-13 cells (setting [1]), 10 to 100 nM in the assay with MOLM-13 cells (setting [2]), 10 to 100 nM with MV4;11 cells (setting [3]) and 10 to 100 nM with MV4;11 cells (setting [4]).
Consider `O=C1CCC(N2C(=O)c3ccc(NC[C@H]4C[C@H](n5cc(-c6ccc7cc[nH]c7n6)c(C6CC6)n5)C4)cc3C2=O)C(=O)N1` (stereo partly drawn) [GS-721, 5-(((Trans-3-(3-cyclopropyl-4-(1H-pyrrolo[2,3-b]pyridin-6-yl)-1H-pyrazol-1-yl)cyclobutyl)methyl)amino)-2-(2,6-dioxopiperidin-3-yl)isoindoline-1,3-dione], for which the IC50 in the assay on MOLM-13 cells (setting [1]) was 10 to 100 nM; in the assay on MOLM-13 cells (setting [2]) it was under 10 nM; with MV4;11 cells (setting [3]) it was under 10 nM; in the assay with MV4;11 cells (setting [4]) it was under 10 nM.
As to `Cn1ccc2ccc(-c3cn([C@H]4C[C@H](CNc5ccc6c(c5)C(=O)N(C5CCC(=O)NC5=O)C6=O)C4)nc3C3CC3)nc21` (stereo partly drawn) [GS-722, 5-(((trans-3-(3-cyclopropyl-4-(1-methyl-1H-pyrrolo[2,3-b]pyridin-6-yl)-1H-pyrazol-1-yl)cyclobutyl)methyl)amino)-2-(2,6-dioxopiperidin-3-yl)isoindoline-1,3-dione], the IC50 in the assay on MOLM-13 cells (setting [1]) was 10 to 100 nM; in the assay with MOLM-13 cells (setting [2]), under 10 nM; in the assay with MV4;11 cells (setting [3]), 10 to 100 nM; in the assay with MV4;11 cells (setting [4]), under 10 nM.
For the compound `Cc1nc(-c2cn(C3CC(F)(CNc4ccc5c(c4)C(=O)N(C4CCC(=O)NC4=O)C5=O)C3)nc2C2CC2)ccc1F` (stereo not drawn) [GS-723, 5-(((Trans-3-(3-cyclopropyl-4-(5-fluoro-6-methylpyridin-2-yl)-1H-pyrazol-1-yl)-1-fluorocyclobutyl)methyl)amino)-2-(2,6-dioxopiperidin-3-yl)isoindoline-1,3-dione], the IC50 in the assay on MOLM-13 cells (setting [1]) is 100 to 1000 nM; with MOLM-13 cells (setting [2]), 10 to 100 nM; in the assay with MV4;11 cells (setting [3]), 100 to 1000 nM; with MV4;11 cells (setting [4]) it was 10 to 100 nM.
For `O=C1CCC(N2C(=O)c3ccc(NCCC4CC5(C4)CC(n4cc(-c6cnc7ccccc7n6)c(C6CC6)n4)C5)cc3C2=O)C(=O)N1` (stereo not drawn) [GS-724, 5-((2-(6-(3-Cyclopropyl-4-(quinoxalin-2-yl)-1H-pyrazol-1-yl)spiro[3.3]heptan-2-yl)ethyl)amino)-2-(2,6-dioxopiperidin-3-yl)isoindoline-1,3-dione], the IC50 is 10 to 100 nM in the assay on MOLM-13 cells (setting [1]), under 10 nM in the assay on MOLM-13 cells (setting [2]), under 10 nM with MV4;11 cells (setting [3]) and under 10 nM in the assay with MV4;11 cells (setting [4]).

These data come from patent US20250221988A1 (Cullgen (Shanghai), Inc., priority 2022, published 2025).
